Measurements published in PubChem BioAssay (NCI).
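Assay format: 96-well plates, 48-hour exposure. TGI is the concentration that stops growth completely.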

Experiments:
Assay in all cases: inhibition of tumour cell growth, NCI panel, 48 h
HOP-62 NSCLC = test system: HOP-62 NSCLC
EKVX NSCLC = test system: EKVX NSCLC
RXF 393 renal = test system: RXF 393 renal
MOLT-4 leukemia = test system: MOLT-4 leukemia
LOX IMVI melanoma = test system: LOX IMVI melanoma
M14 melanoma = test system: M14 melanoma
OVCAR-3 ovarian = test system: OVCAR-3 ovarian
TK-10 renal = test system: TK-10 renal
MALME-3M melanoma = test system: MALME-3M melanoma
KM12 colon = test system: KM12 colon
IGROV1 ovarian = test system: IGROV1 ovarian
MCF7 breast = test system: MCF7 breast
UO-31 renal = test system: UO-31 renal
SR leukemia = test system: SR leukemia
A549 NSCLC = test system: A549 NSCLC
SW-620 colon = test system: SW-620 colon
UACC-62 melanoma = test system: UACC-62 melanoma
HL-60(TB) leukemia = test system: HL-60(TB) leukemia
SF-295 CNS = test system: SF-295 CNS
SK-MEL-2 melanoma = test system: SK-MEL-2 melanoma
COLO 205 colon = test system: COLO 205 colon
NCI-H522 lung = test system: NCI-H522 lung
K-562 leukemia = test system: K-562 leukemia
T-47D breast = test system: T-47D breast
NCI-H226 lung = test system: NCI-H226 lung
DU-145 prostate = test system: DU-145 prostate
MDA-MB-231 breast = test system: MDA-MB-231 breast
SK-MEL-5 melanoma = test system: SK-MEL-5 melanoma
NCI/ADR-RES ovarian = test system: NCI/ADR-RES ovarian
U251 CNS = test system: U251 CNS
OVCAR-5 ovarian = test system: OVCAR-5 ovarian
HCC-2998 colon = test system: HCC-2998 colon
SF-539 CNS = test system: SF-539 CNS
HCT-116 colon = test system: HCT-116 colon
BT-549 breast = test system: BT-549 breast
UACC-257 melanoma = test system: UACC-257 melanoma
OVCAR-4 ovarian = test system: OVCAR-4 ovarian
SNB-19 CNS = test system: SNB-19 CNS
SK-MEL-28 melanoma = test system: SK-MEL-28 melanoma
HT29 colon = test system: HT29 colon
786-0 renal = test system: 786-0 renal
OVCAR-8 ovarian = test system: OVCAR-8 ovarian
HS 578T breast = test system: HS 578T breast
SN12C renal = test system: SN12C renal
MDA-N = test system: MDA-N
PC-3 prostate = test system: PC-3 prostate
ACHN renal = test system: ACHN renal
NCI-H23 lung = test system: NCI-H23 lung
CCRF-CEM leukemia = test system: CCRF-CEM leukemia
HCT-15 colon = test system: HCT-15 colon
RPMI-8226 leukemia = test system: RPMI-8226 leukemia
CAKI-1 renal = test system: CAKI-1 renal
MDA-MB-435 = test system: MDA-MB-435
SNB-75 CNS = test system: SNB-75 CNS
HOP-92 NSCLC = test system: HOP-92 NSCLC
SF-268 CNS = test system: SF-268 CNS
SK-OV-3 ovarian = test system: SK-OV-3 ovarian
A498 renal = test system: A498 renal
NCI-H460 lung = test system: NCI-H460 lung

Measured: TGI

CCOC(=O)C(NCc1ccccc1)(NC(=O)c1ccccc1)C(F)(F)F (configuration not stated)
83.6 µM: MDA-MB-231 breast
89.9 µM: CCRF-CEM leukemia
not listed: A498 renal | NCI-H460 lung
> 100 µM: all other assays above

CSc1n[nH]c(N)c1C(=O)Nc1ccc(Cl)cc1
76.5 µM: NCI-H226 lung
60.7 µM: RXF 393 renal
56 µM: HCT-116 colon
not listed: HOP-62 NSCLC | SF-295 CNS | ACHN renal | HOP-92 NSCLC
> 100 µM: all other assays above
